Legend:
[1] = target: human GST-USP22 with Sgf11, Sgf73 1-105 and Sus1 (Homo sapiens, UniProt Q9UPT9); assay: in vitro USP22 deubiquitination assay (re-constructed deubiquitination module); type: biochemical; conditions: customized deubiquitination assay, human GST-USP22 with Sgf11, Sgf73 1-105, Sus1; read-out: IC50 in suppressing USP22 in vitro catalytic activity
Procedure: (A) The chemical structure of S02-S106 11-((4-cyanophenyl)amino)-7,8,9,10-tetrahydrobenzo(4,5)imidazole[1,2-b]isoquinoline-6-carbonitrile, (B & C) The efficacy of USP22i-S02 analogs in inhibiting USP22 catalytic activity was determined in vitro. The representative data from a triplicate analysis of S02-S106 with S02 as a control are shown (B). The IC50 of USP22i-S02 analogs in suppressing USP22 in vitro catalytic activity are shown (C). NA, not available.
We purchased human recombinant Sgf11 and Sgf73 1-105 and Sus1 proteins from R&D Systems Inc, and re-constructed the deubiquitination activity with our human GST-USP22. The USP22 customized deubiquitination was optimized and used for in vitro screening the activity of synthetic USP22i-s02 analogs with the USP22i-s02 as a control (FIG. 12).

naïve mice = assay: toxicity and Treg phenotype in naïve mice; type: in vivo
Procedure: B, FOXP3 MFI in WT and 22KO of Treg cells after treatment with 20 μg/kg of Usp22i-S02 in vivo (n=3). C, Representative flow cytometry plot of FOXP3+CD25+MFI of CD4+ peripheral cells of mice treated with 20 μg/kg of Usp22i-S 02 relative to control (n=5). D, Graphical representation of Foxp3 MFI upon Usp22i-S02 administration (n=5). E, Tumor growth curve of LLC1 cells subcutaneously injected in the flank of WT mice with or without the addition of 20 mg/kg/time of the Usp22 inhibitor starting at day 15, in 100 μL of oil (n=4). F-G, Representative flow cytometry plot and graphical representation of % infiltration of CD4+ and CD8+ T cells within the tumor (n=4). H, Representative histogram plot and graphical representation of intratumoral Treg (itTreg) Foxp3 MFI (n=4). I, MFI of itTreg suppressive markers (n=3-4). J, Percent Foxp3+IFNg+itTreg cells in control and Usp22-S02 treated mice (n=3-4). B, D-E, G, H-I Two-way ANOVA with multiple comparisons between rows was performed to determine statistical significance. J, Unpaired two tailed T test was performed to determine significance. All data are presented as mean±stdev. NS, not significant. *P<0.05, **P<0.01, ***P<0.001, ****P<0.0001.
A, Body weight of Usp22i-S02 treated mice verses DMSO treated controls over the course of treatment (n=4). A-F. Injections were twice a day for 3 consecutive days at 10 μg/kg (n=4). B, Percent of cell populations in naïve mice treated with Usp22i-S02 relative to DMSO control (n=3-4). […] D, Percent CD44^hiCD62L^lo in T cell populations gated on CD45+ cells in naïve mice treated with Usp22i-S02 relative to DMSO control (n=3). E, Percent Annexin+PI+ T cells gates on CD45+ cells in naïve mice treated with Usp22i-S02 relative to DMSO control (n=4). F-H, Organ toxicity panel (VetScan VS2 Comprehensive Diagnostic Rotor lot 1061AA2) of naïve mice treated with Usp22i-S02 relative to DMSO control (n=2-3). I, Growth curve of subcutaneously injected LLC1 in WT mice treated with Usp22i-S02 at 10 μg/kg (n=5-10). I-Q, Injections were twice a day for 5 consecutive days at 10 μg/kg. J, Weights of resected tumors at day 16 from I (n=10). K-L, Representative flow plot and graphical representation of infiltrating T cells gated on CD45+ cells (n=5). M-P, Characterization of intratumoral CD8+ T cells frome mice treated with Usp22i-S02 (n=3-5). Q, Percent of intratumoral Treg cells from mice treated with Usp22i-S02 verses DMSO control, gated on CD4+Foxp3+ from mice (n=5). A-E, I and L, Two-way ANOVA with Sidaks's multiple comparisons between rows relative to control was performed to determine statistical significance. F-H, J, and M-Q, Two-tailed unpaired t-test was performed to determine statistical significance. All data are presented as mean±stdev. NS, not significant. *P<0.05, **P<0.01, ***P<0.001, ****P<0.0001.
An important aspect of a potential immunotherapeutic is its antitumor functionality paired with low immune toxicity. To determine the toxicity of Usp22i-S02 in vivo, we first determined its effects in naïve mice.

[2] = tested on: FoxP3 and PD-L1 expression; assay: biological screening of FoxP3 and PD-L1 expression; type: cell-based; conditions: inhibition of FoxP3 and PD-L1 expression
Procedure: Biological screening confirmed that USP22i-S02 inhibited the expression of FoxP3 and PD-L1 expression in a USP22-dependent manner. The IC50 is about 6-7 uM. […] In particular, modifications at the R position at A-Ring, or R1 and R2 at E-Ring are likely to improve its biological activity. Therefore, we used the SYBYL drug design software and generated a chemical library of 40400 derivatives (named as USP22-S02X) by modifying the A or/and E ring with 200 functional groups at the R or R1 or R2 or two of the three positions.

[3] = tested on: LLC1 tumors in RAG−/− mice; assay: LLC1 tumor growth in RAG−/− mice; type: in vivo; conditions: treated for 3 days at day 15 of tumor growth
Procedure: FIG. 8: Usp22i-S02 inhibits tumor growth in vitro and in vivo. A, In vitro counts of LLC1 after treatment with Usp22i-S02 under various concentrations for 24 hours (n=2). B, In vitro viability of LLC1 after treatment with Usp22i-S02 under various concentrations for 24 hours (n=2). C, In vitro relative growth of LLC1 cells treated with 10 ug/ml of Usp22i-S02 relative to DMSO treated control for 7 days via OD600 (n=4). D, Growth curve of 1 million subcutaneously injected LLC1 cells into RAG−/− mice treated for 3 days Usp22i-S02 relative to DMSO control injections at day 15 of tumor growth (n=4). C-D, Two-way ANOVA with Sidaks's multiple comparisons between rows relative to control was performed to determine statistical significance. All data are presented as mean±stdev. NS, not significant. *P<0.05, **P<0.01, ***P<0.001, ****P<0.0001.
As Usp22 is also an important oncogene, we were interested in the potential dual-therapeutic function of Usp22i-S02.

Sequence of human GST-USP22 with Sgf11, Sgf73 1-105 and Sus1 (Q9UPT9 whole entry): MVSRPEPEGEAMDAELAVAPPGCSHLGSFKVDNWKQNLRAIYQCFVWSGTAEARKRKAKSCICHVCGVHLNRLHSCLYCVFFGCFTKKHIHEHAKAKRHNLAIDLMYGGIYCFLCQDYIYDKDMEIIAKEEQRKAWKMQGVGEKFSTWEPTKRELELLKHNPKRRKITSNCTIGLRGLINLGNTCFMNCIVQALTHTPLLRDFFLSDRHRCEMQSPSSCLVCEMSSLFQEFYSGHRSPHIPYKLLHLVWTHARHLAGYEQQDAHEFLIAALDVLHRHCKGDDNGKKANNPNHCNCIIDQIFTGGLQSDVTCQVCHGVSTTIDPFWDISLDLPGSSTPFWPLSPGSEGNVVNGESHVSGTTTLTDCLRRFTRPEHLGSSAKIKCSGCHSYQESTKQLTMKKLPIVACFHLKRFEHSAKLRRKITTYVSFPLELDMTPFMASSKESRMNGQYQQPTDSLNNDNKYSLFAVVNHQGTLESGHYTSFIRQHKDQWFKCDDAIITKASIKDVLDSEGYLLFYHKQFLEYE
Sequence of human GST-USP22 with Sgf11, Sgf73 1-105 and Sus1 (Q14CW9 whole entry partner): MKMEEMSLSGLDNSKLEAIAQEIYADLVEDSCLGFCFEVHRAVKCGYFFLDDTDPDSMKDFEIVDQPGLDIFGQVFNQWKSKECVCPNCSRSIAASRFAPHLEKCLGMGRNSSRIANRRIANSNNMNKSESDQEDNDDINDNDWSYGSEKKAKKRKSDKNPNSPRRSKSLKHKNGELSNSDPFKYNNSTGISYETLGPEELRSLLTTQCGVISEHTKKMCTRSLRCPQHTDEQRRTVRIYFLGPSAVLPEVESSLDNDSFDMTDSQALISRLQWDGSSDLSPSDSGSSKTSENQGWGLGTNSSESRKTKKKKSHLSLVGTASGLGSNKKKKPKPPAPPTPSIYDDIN
Sequence of human GST-USP22 with Sgf11, Sgf73 1-105 and Sus1 (O15265 1-105 partner limits assumed): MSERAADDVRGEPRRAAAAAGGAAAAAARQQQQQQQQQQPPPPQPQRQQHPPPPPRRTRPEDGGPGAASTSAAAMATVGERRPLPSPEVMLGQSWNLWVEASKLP
Sequence of human GST-USP22 with Sgf11, Sgf73 1-105 and Sus1 (Q9NPA8 whole entry partner): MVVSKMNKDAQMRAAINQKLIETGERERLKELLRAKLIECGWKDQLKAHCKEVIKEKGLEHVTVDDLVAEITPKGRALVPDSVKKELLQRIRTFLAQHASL

For `N#Cc1c2c(c(Nc3ccccc3)n3c1nc1ccccc13)CCCC2` [USP22i-S02, 11-anilino-7,8,9,10-tetrahydrobenzimidazo[1,2-b]isoquinoline-6-carbonitrile], the IC50 [1] was about 4.7 µM, the “FOXP3 MFI in Usp22-KO mice” value (naïve mice; Usp22-KO mice, 20 μg/kg) was “no additional decrease to FOXP3 MFI” and the “FOXP3 MFI in Treg cells from spleen and lymph nodes” value (naïve mice; WT mice, 20 μg/kg) was “significant drop in FOXP3 MFI”. For the same compound, the Treg cell death (naïve mice; naïve mice) was “significantly increased”, the Treg percentage (naïve mice; naïve mice) was “decrease in Treg percentage” and the Treg proliferation (naïve mice; naïve mice) was “also increased”. The “organ toxicity (comprehensive tissue panel)” value (naïve mice; naïve mice versus DMSO control) was “no organ toxicity differences”, the “weights, B cell and Teff cell percentages and proliferation, Teff cell activation” value (naïve mice; naïve mice versus DMSO-treated control, twice a day for 3 days at 10 μg/kg) was “little alteration” and the IC50 [2] was 6 to 7 µM. For the same compound, the “tumor growth in Rag−/− mice with established tumors” value [3] was “small but statistically significant decrease in tumor growth”.

— patent US12624031B2, “Inhibitors of ubiquitin specific peptidase 22 (USP22) and uses thereof for treating diseases and disorders” (Northwestern University, priority 2022, dated 2026)
